Where two headings read alike, the source gives them in different places.
Test system: gastric acid secretion
Test: Inhibition of basal Gastric Acid Secretion (Acute Gastric Fistula Rat)
Format: in vivo, Female Sprague-Dawley rats
Details: 10 mg./kg. intraduodenal
Summary of the method: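 Fasted (18-24 h) female Sprague-Dawley rats (140-160 g) with acute gastric fistula; compound given intraduodenally in 0.5% methocel/0.4% Tween 80/saline. Gastric juice collected at 60 and 120 min after a discarded 30-min sample, titrated with 0.01N NaOH to pH 7.0; percent inhibition of acid output versus controls, three rats per group.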

[1] = 2 h, B: 120 minute collection, read-out: % Inhibition Total Acid Output
[2] = 2 h, B: 120 minute collection, read-out: % Inhibition Total Acidity

Molecule `CCC/C=C/[C@H]1CCC(=O)[C@@H]1CCCCCCC(=O)O` (relative stereo) [9-oxo-18,19,20-trinor-13-trans-prostenoic acid] has an inhibition in vivo at 10 mg/kg (1 h, A: 60 minute collection, read-out: % Inhibition Total Acid Output) of 55%, an inhibition in vivo at 10 mg/kg (1 h, A: 60 minute collection, read-out: % Inhibition Total Acidity) of 20% and an inhibition in vivo at 10 mg/kg [1] of 55%. For the same molecule, the inhibition in vivo at 10 mg/kg [2] was 52%.

With `CC(C)CC/C=C/[C@@H]1CCC(=O)[C@H]1CCCCCCC(=O)O` (relative stereo) [17-methyl-9-oxo-19,20-dinor-13-trans-prostenoic acid] the inhibition in vivo at 10 mg/kg [1] was 53% and the inhibition in vivo at 10 mg/kg [2] was 51%.
